Measurements as given in US20070111967A1, “Organosilicon compounds and their use” (priority 2003, published 2007).

melting point: 105 °C
SMILES: COc1cc(OC)c(NC(=O)c2ccc(Cc3cc4c(cc3C)[Si](C)(C)C[Si]4(C)C)o2)c(OC)c1
